The supplement of paper PMC10307832

Legend:
Test in all cases: relative viability (nuclei count vs DMSO), 5 days (fraction); higher = more cells survive
LK-2 = system: LK-2
In short: (§1)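 A single step with final 0.05% Triton X-100, 1% formaldehyde and 1 ug/ml Hoechst fixed the cells and stained nuclei 5 days after treatment. Lung cancer cell lines in 1536-well plates had been treated by pin tool the day after seeding with one drug alone or a fixed anchor-drug dose plus five library-drug doses (not always all listed) in √10 steps, and nuclei were counted on 4× images. Relative viability is the ratio of nuclei in treated wells to nuclei in vehicle wells, taken as the median of duplicate plates.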

A-427 = system: A-427
In short: as §1

NCI-H23 = system: NCI-H23
In short: as §1

PC-3 [JPC-3] = system: PC-3 [JPC-3]
In short: as §1

201T = system: 201T
In short: as §1

LU99A = system: LU99A
In short: as §1

RERF-LC-KJ = system: RERF-LC-KJ
In short: as §1

LCLC-97TM1 = system: LCLC-97TM1
In short: as §1

H3255 = system: H3255
In short: as §1

NCI-H1651 = system: NCI-H1651
In short: as §1

COR-L23 = system: COR-L23
In short: as §1

NCI-H1563 = system: NCI-H1563
In short: as §1

SW 1573 = system: SW 1573
In short: as §1

NCI-H1650 = system: NCI-H1650
In short: as §1

NCI-H1944 = system: NCI-H1944
In short: as §1

LCLC-103H = system: LCLC-103H
In short: as §1

PC-14 = system: PC-14
In short: as §1

NCI-H1793 = system: NCI-H1793
In short: as §1

NCI-H2347 = system: NCI-H2347
In short: as §1

SW 900 = system: SW 900
In short: as §1

NCI-H650 = system: NCI-H650
In short: as §1

NCI-H460 = system: NCI-H460
In short: as §1

NCI-H727 = system: NCI-H727
In short: as §1

NCI-H838 = system: NCI-H838
In short: as §1

## C[C@@H]1CN(CC(=O)Nc2ccc3c(c2)Cc2cccc(-c4cc(=O)cc(N5CCOCC5)o4)c2S3)C[C@H](C)O1 + N=C(N)NC(=N)NCCc1ccccc1 [Phenformin] (partner 250 µM)
LK-2; first compound 0.1265 µM
  relative viability: 0.464
LK-2; first compound 0.4 µM
  relative viability: 0.365
LK-2; first compound 4 µM
  relative viability: 0.634
A-427; first compound 0.04 µM
  relative viability: 0.298
A-427; first compound 0.1265 µM
  relative viability: 0.35
A-427; first compound 0.4 µM
  relative viability: 0.284
A-427; first compound 4 µM
  relative viability: 0.285
NCI-H23; first compound 0.04 µM
  relative viability: 0.719
NCI-H23; first compound 0.1265 µM
  relative viability: 0.762
NCI-H23; first compound 0.4 µM
  relative viability: 0.803
NCI-H23; first compound 4 µM
  relative viability: 0.733
PC-3 [JPC-3]; first compound 0.04 µM
  relative viability: 0.494
PC-3 [JPC-3]; first compound 0.1265 µM
  relative viability: 0.469
PC-3 [JPC-3]; first compound 0.4 µM
  relative viability: 0.475
PC-3 [JPC-3]; first compound 4 µM
  relative viability: 0.488
201T; first compound 0.04 µM
  relative viability: 0.439
201T; first compound 0.1265 µM
  relative viability: 0.423
201T; first compound 0.4 µM
  relative viability: 0.477
201T; first compound 4 µM
  relative viability: 0.517
LU99A; first compound 0.04 µM
  relative viability: 0.742
LU99A; first compound 0.1265 µM
  relative viability: 0.985
LU99A; first compound 0.4 µM
  relative viability: 1.02
LU99A; first compound 4 µM
  relative viability: 0.916
RERF-LC-KJ; first compound 0.04 µM
  relative viability: 0.422
RERF-LC-KJ; first compound 0.1265 µM
  relative viability: 0.368
RERF-LC-KJ; first compound 0.4 µM
  relative viability: 0.379
RERF-LC-KJ; first compound 4 µM
  relative viability: 0.323
LCLC-97TM1; first compound 0.04 µM
  relative viability: 0.354
LCLC-97TM1; first compound 0.1265 µM
  relative viability: 0.469
LCLC-97TM1; first compound 0.4 µM
  relative viability: 0.433
LCLC-97TM1; first compound 4 µM
  relative viability: 0.483
H3255; first compound 0.04 µM
  relative viability: 0.388
H3255; first compound 0.1265 µM
  relative viability: 0.364
H3255; first compound 0.4 µM
  relative viability: 0.319
H3255; first compound 4 µM
  relative viability: 0.367
NCI-H1651; first compound 0.04 µM
  relative viability: 0.334
NCI-H1651; first compound 0.1265 µM
  relative viability: 0.321
NCI-H1651; first compound 0.4 µM
  relative viability: 0.36
NCI-H1651; first compound 4 µM
  relative viability: 0.313
COR-L23; first compound 0.04 µM
  relative viability: 0.435
COR-L23; first compound 0.1265 µM
  relative viability: 0.476
COR-L23; first compound 0.4 µM
  relative viability: 0.499
COR-L23; first compound 4 µM
  relative viability: 0.439
NCI-H1563; first compound 0.04 µM
  relative viability: 0.692
NCI-H1563; first compound 0.1265 µM
  relative viability: 0.636
NCI-H1563; first compound 0.4 µM
  relative viability: 0.659
NCI-H1563; first compound 4 µM
  relative viability: 0.677
SW 1573; first compound 0.04 µM
  relative viability: 0.438
SW 1573; first compound 0.1265 µM
  relative viability: 0.315
SW 1573; first compound 0.4 µM
  relative viability: 0.301
SW 1573; first compound 4 µM
  relative viability: 0.312
NCI-H1650; first compound 0.04 µM
  relative viability: 0.406
NCI-H1650; first compound 0.1265 µM
  relative viability: 0.431
NCI-H1650; first compound 0.4 µM
  relative viability: 0.37
NCI-H1650; first compound 4 µM
  relative viability: 0.347
NCI-H1944; first compound 0.04 µM
  relative viability: 0.191
NCI-H1944; first compound 0.1265 µM
  relative viability: 0.214
NCI-H1944; first compound 0.4 µM
  relative viability: 0.23
NCI-H1944; first compound 4 µM
  relative viability: 0.215
LCLC-103H; first compound 0.04 µM
  relative viability: 0.325
LCLC-103H; first compound 0.1265 µM
  relative viability: 0.299
LCLC-103H; first compound 0.4 µM
  relative viability: 0.302
LCLC-103H; first compound 4 µM
  relative viability: 0.331
PC-14; first compound 0.04 µM
  relative viability: 0.377
PC-14; first compound 0.1265 µM
  relative viability: 0.528
PC-14; first compound 0.4 µM
  relative viability: 0.556
PC-14; first compound 4 µM
  relative viability: 0.574
NCI-H1793; first compound 0.04 µM
  relative viability: 0.347
NCI-H1793; first compound 0.1265 µM
  relative viability: 0.339
NCI-H1793; first compound 0.4 µM
  relative viability: 0.272
NCI-H1793; first compound 4 µM
  relative viability: 0.273
NCI-H2347; first compound 0.04 µM
  relative viability: 0.412
NCI-H2347; first compound 0.1265 µM
  relative viability: 0.547
NCI-H2347; first compound 0.4 µM
  relative viability: 0.368
NCI-H2347; first compound 4 µM
  relative viability: 0.449
SW 900; first compound 0.04 µM
  relative viability: 0.466
SW 900; first compound 0.1265 µM
  relative viability: 0.724
SW 900; first compound 0.4 µM
  relative viability: 0.669
SW 900; first compound 4 µM
  relative viability: 0.488
NCI-H650; first compound 0.04 µM
  relative viability: 0.417
NCI-H650; first compound 0.1265 µM
  relative viability: 0.436
NCI-H650; first compound 0.4 µM
  relative viability: 0.436
NCI-H650; first compound 4 µM
  relative viability: 0.33
NCI-H460; first compound 0.04 µM
  relative viability: 0.566
NCI-H460; first compound 0.1265 µM
  relative viability: 0.488
NCI-H460; first compound 0.4 µM
  relative viability: 0.605
NCI-H460; first compound 4 µM
  relative viability: 0.392
NCI-H727; first compound 0.04 µM
  relative viability: 0.626
NCI-H727; first compound 0.1265 µM
  relative viability: 0.663
NCI-H727; first compound 0.4 µM
  relative viability: 0.599
NCI-H727; first compound 4 µM
  relative viability: 0.544
NCI-H838; first compound 0.04 µM
  relative viability: 0.527
NCI-H838; first compound 0.1265 µM
  relative viability: 0.54
NCI-H838; first compound 0.4 µM
  relative viability: 0.497
NCI-H838; first compound 4 µM
  relative viability: 0.374
